{"source": "patent US20090004694A1", "about": "“Sequence of Thermotolerant L-Rhamnose Isomerase Gene and Use of the Same” (National University Corporation Kagawa University, priority 2004, published 2009)", "key": {"[1]": {"tested_on": "L-rhamnose isomerase derived from Bacillus pallidus strain 14a (IPOD FERM AP-20172)", "experiment": "Substrate specificity (relative activity) of the purified enzyme, cysteine-carbazole method", "type": "biochemical", "conditions": "activity against L-rhamnose assumed to be 100%; 50° C., 10 minutes, glycine-NaOH buffer pH 9.0", "procedure": "(§1) The method for measuring the substrate specificity (relative activity (%)) will be described.\n(§2) A reaction solution having a composition of 50 μl of the purified enzyme solution, 50 μl of 0.05 M of each substrate sugar, 50 μl of 0.01 M manganese chloride and 0.05 M glycine-NaOH buffer (pH 9.0) was used. The reaction was carried out at a reaction temperature of 50° C. for 10 minutes. The produced ketose corresponding to the respective substrates was measured by the cysteine-carbazole method, and the activity that produces 1 μmol of the ketose per minute was measured for the respective substrates."}, "[2]": {"tested_on": "L-rhamnose isomerase produced by Pseudomonas stutzeri LL172 (IPOD FERM BP-08593)", "experiment": "Substrate specificity (relative activity) of the purified enzyme, cysteine-carbazole method", "type": "biochemical", "conditions": "activity against L-rhamnose assumed to be 100%; 50° C., 10 minutes, glycine-NaOH buffer pH 9.0", "procedure": "as §1, §2"}, "[3]": {"tested_on": "L-rhamnose isomerase produced by Pseudomonas stutzeri LL172", "conditions": "cited from earlier work; for effect of chelating agent on activity: coexisting during the measurement of the activity"}, "[4]": {"target": "T1, L-rhamnose isomerase produced by E. coli (Escherichia coli, UniProt P32170)", "T1 sequence (P32170 1-419)": "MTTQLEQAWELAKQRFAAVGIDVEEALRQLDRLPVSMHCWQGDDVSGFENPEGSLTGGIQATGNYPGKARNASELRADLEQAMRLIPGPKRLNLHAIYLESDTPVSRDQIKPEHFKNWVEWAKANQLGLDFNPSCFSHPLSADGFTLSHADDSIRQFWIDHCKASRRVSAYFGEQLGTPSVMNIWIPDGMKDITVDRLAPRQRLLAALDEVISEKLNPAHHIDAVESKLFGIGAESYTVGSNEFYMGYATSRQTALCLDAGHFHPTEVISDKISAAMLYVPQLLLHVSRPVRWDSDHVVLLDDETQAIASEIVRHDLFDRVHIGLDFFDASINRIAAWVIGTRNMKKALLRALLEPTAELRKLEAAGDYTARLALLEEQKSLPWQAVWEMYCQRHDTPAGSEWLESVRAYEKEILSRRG", "conditions": "cited from earlier work"}, "[5]": {"experiment": "Solubility of D-psicose and D-allose in water and alcohols", "type": "physicochemical", "excerpt": "The principle of the collection by separation will be briefly described. […] D-psicose has a solubility of about 10% in methanol and ethanol, however, D-allose is insoluble in either alcohol. The temperature has an influence on the solubility. The solubility of D-psicose in both alcohols is increased at a high temperature. Further, when the alcohol concentration is high, D-allose is likely to be crystallized. It is a separation technique utilizing the above physical properties. It is a production method of high-purity D-allose in which by allowing an alcohol (ethanol and/or ethanol) to act on, D-allose which is insoluble in the alcohol (ethanol and/or ethanol) is crystallized and the crystal of D-allose is separated."}, "[6]": {"tested_on": "L-rhamnose isomerase derived from Bacillus pallidus strain 14a", "experiment": "Effect of metal ion on enzyme activity", "type": "biochemical", "conditions": "1 mM cobalt ion"}, "[7]": {"experiment": "Optimal and working temperature of L-rhamnose isomerase", "type": "biochemical", "conditions": "reaction time of 10 minutes"}, "[8]": {"experiment": "Optimal pH and working pH of L-rhamnose isomerase", "type": "biochemical", "conditions": "50° C., L-rhamnose as substrate, purified enzyme", "procedure": "The optimal pH of L-rhamnose isomerase derived from Bacillus pallidus was examined. With the use of the purified enzyme, a reaction was carried out at 50° C. using L-rhamnose as a substrate at each pH value.\nThe optimal pH of L-rhamnose isomerase derived from P. stutzeri was examined. […] With regard to the activity thereof, the optimal pH was present in a range of from pH 7 to around pH 9."}, "[9]": {"experiment": "Temperature stability of L-rhamnose isomerase", "type": "physicochemical", "conditions": "heat treatment condition of 1 hour"}, "[10]": {"conditions": "cited from earlier work"}, "[11]": {"conditions": "reaction time 10 minutes; cited from earlier work"}, "[12]": {"conditions": "known properties (Non-patent document 1 / Patent document 1); cited from earlier work"}}, "note": "Where “and” joins values, the source holds several entries; their conditions need not be identical. Identical values can stand only once. Like-named read-outs stand apart in the source and are kept apart here.", "data": [{"molecule": "O=C[C@H](O)[C@H](O)[C@@H](O)CO", "note": "[L-lyxose]", "values": [{"measurement": "Enzyme derived from B. Pallidus (relative activity %)", "setting": "[1]", "result": 23.9, "unit": "%"}, {"measurement": "Enzyme derived from P stutzeri (relative activity %)", "setting": "[2]", "result": "43.9% and 43.7%"}]}, {"molecule": "O=C[C@@H](O)[C@@H](O)[C@H](O)CO", "note": "[D-lyxose]", "values": [{"measurement": "Enzyme derived from B. Pallidus (relative activity %)", "setting": "[1]", "result": 0.14, "unit": "%"}, {"measurement": "Enzyme derived from P stutzeri (relative activity %)", "setting": "[2]", "result": 0.006, "unit": "%"}]}, {"molecule": "O=C(O)CN(CCOCCOCCN(CC(=O)O)CC(=O)O)CC(=O)O", "note": "[EGTA]", "values": [{"measurement": "effect of chelating agent on activity", "setting": "[3]", "result": "hardly inhibited"}]}, {"molecule": "O=C[C@H](O)[C@H](O)[C@@H](O)[C@@H](O)CO", "note": "[L-mannose]", "values": [{"measurement": "Enzyme derived from B. Pallidus (relative activity %)", "setting": "[1]", "result": 11, "unit": "%"}, {"measurement": "Enzyme derived from P stutzeri (relative activity %)", "setting": "[2]", "result": 33.4, "unit": "%"}]}, {"molecule": "O=C(CO)[C@H](O)[C@H](O)[C@H](O)CO", "note": "[D-psicose]", "values": [{"measurement": "activity between D-psicose and D-allose", "setting": "[4]", "result": "hardly exhibits an activity"}, {"measurement": "solubility in methanol and ethanol", "setting": "[5]; methanol and ethanol", "result": "about 10%"}, {"measurement": "solubility in water", "setting": "[5]; water", "result": "readily soluble"}]}, {"molecule": "O=C(O)CN(CCN(CC(=O)O)CC(=O)O)CC(=O)O", "note": "[EDTA]", "values": [{"measurement": "effect of chelating agent on activity", "setting": "[3]", "result": "hardly inhibited"}]}, {"molecule": "C[C@H](O)[C@H](O)[C@@H](O)[C@@H](O)C=O", "note": "[L-rhamnose]", "values": [{"measurement": "Enzyme derived from B. Pallidus (relative activity %)", "setting": "[1]", "result": 100, "unit": "%"}, {"measurement": "Enzyme derived from P stutzeri (relative activity %)", "setting": "[2]", "result": 100, "unit": "%"}]}, {"molecule": "[Co+2]", "note": "[cobalt ion]", "values": [{"measurement": "activity inhibited by metal ion", "setting": "[6]", "result": "About 30%"}, {"measurement": "activity inhibited by metal ion", "setting": "[3]; 1 mM cobalt ion", "result": "About 30%"}]}, {"molecule": "O=C[C@H](O)[C@H](O)[C@H](O)[C@H](O)CO", "note": "[D-allose]", "values": [{"measurement": "activity between D-psicose and D-allose", "setting": "[4]", "result": "hardly exhibits an activity"}, {"measurement": "Enzyme derived from B. Pallidus (relative activity %)", "setting": "[1]", "result": "5.5% and 5.6%"}, {"measurement": "Enzyme derived from P stutzeri (relative activity %)", "setting": "[2]", "result": 7.2, "unit": "%"}, {"measurement": "solubility in methanol and ethanol", "setting": "[5]", "result": "insoluble"}, {"measurement": "solubility in water", "setting": "[5]", "result": "readily soluble"}]}, {"molecule": "L-rhamnose isomerase derived from Bacillus pallidus: thermotolerant L-rhamnose isomerase derived from Bacillus pallidus strain 14a (FERM AP-20172), amino acid sequence SEQ ID NO: 2 (protein, listed as Bacillus pallidus) MVIKESFEIARQVYEKWGINIEEVLENLQQASISIHCWQGDDVKGFEADASELSGGIDVTGNYPGKARNAEELRQDLEKALSLIPGKHRVNLHAIYAETNGEKVERDQLEPKHFENWVNWAKKIGIGLDFNPTLFSHEKAADGLTLSHPDPGIREFWINHCIRSRKIGEYFGKELGTPCLTNIWIPDGYKDIPSDRLTPRKRLKESLDKIFSVEINEKYNLDAVESKLFGIGSESFVVGSHEFYLGYALQNNKIYLLDTGHFHPTETVSNKISSILLYSDRLALHVSRPVRWDSDHVVILDDELREIALEIVRNDALHKVLIGLDFFDASINRLAAWVIGTRNMIKALLYAMLMPHEYLKQLQEKGNFTERLAVMEEFKTYPFGAIWDYYCEKMNVPVREEWLKEIQKYEEEVLTKRQ", "values": [{"measurement": "optimal temperature (highest enzymatic activity)", "setting": "[7]", "result": 80, "unit": "°C"}, {"measurement": "optimal temperature higher compared with the L-rhamnose isomerase of LL172", "setting": "[7]", "result": 20, "unit": "°C"}, {"measurement": "optimal temperature higher compared with the L-rhamnose isomerase of LL172", "setting": "[7]; listed as thermotolerant L-rhamnose isomerase", "result": "about 20 °C"}, {"measurement": "pH at which the highest activity was exhibited", "setting": "[8]", "result": 6}, {"measurement": "stable temperature higher compared with the L-rhamnose isomerase of LL172", "setting": "[9]", "result": 10, "unit": "°C"}, {"measurement": "temperature stability (stable up to)", "setting": "[9]", "result": "up to 50 °C"}]}, {"molecule": "L-rhamnose isomerase produced by Pseudomonas stutzeri LL172: known L-rhamnose isomerase derived from Pseudomonas stutzeri LL172 (FERM BP-08593), amino acid sequence SEQ ID NO: 4 (protein, listed as Pseudomonas stutzeri) MAEFRIAQDVVARENDRRASALKEDYEALGANLARRGVDIEAVTAKVEKFFVAVPSWGVGTGGTRFARFPGTGEPRGIFDKLDDCAVIQQLTRATPNVSLHIPWDKADPKELKARGDALGLGFDAMNSNTFSDAPGQAHSYKYGSLSHTDAATRAQAVEHNLECIEIGKAIGSKALTVWIGDGSNFPGQSNFTRAFERYLSAMAEIYKGLPDDWKLFSEHKMYEPAFYSTVVQDWGTNYLIAQTLGPKAQCLVDLGHHAPNTNIEMIVARLIQFGKLGGFHFNDSKYGDDDLDAGAIEPYRLFLVFNELVDAEARGVKGFHPAHMIDQSHNVTDPIESLINSANEIRRAYAQALLVDRAALSGYQEDNDALMATETLKRAYRTDVEPILAEARRRTGGAVDPVATYRASGYRARVAAERPASVAGGGGII", "values": [{"measurement": "optimal temperature (highest enzymatic activity)", "setting": "[7]", "result": 60, "unit": "°C"}, {"measurement": "pH at which the highest activity was exhibited", "setting": "[8]", "result": 9}, {"measurement": "remaining activity", "setting": "[10]; 50° C. for 10 minutes", "result": "≥ 90", "unit": "%"}, {"measurement": "temperature stability (stable at)", "setting": "[10]; 10 minutes", "result": 40, "unit": "°C"}, {"measurement": "temperature of highest activity", "setting": "[11]", "result": 60, "unit": "°C"}, {"measurement": "optimal pH", "setting": "[12]", "result": 9.0}, {"measurement": "temperature stability (stable up to)", "setting": "[9]", "result": 40, "unit": "°C"}]}]}
